# In patent US8722364B2, “Method for increasing microbial catalase production” (Jiangnan University, priority 2011, dated 2014):
# Legend:
# [1] = test system: Bacillus sp. WSHDZ-01; assay: Fermentation of Bacillus sp. WSHDZ-01 with sodium hexametaphosphate added; extracellular catalase activity of the broth by catalase assay (Aebi); assay type: cell-based
# Procedure: (§1) Fermentation Culture: the fermentation process was performed in a 3 liter (L) stirred fermenter (KFT-3L, Korea) with a working volume of 1.8 L. Above 12-h-old basic flask culture was added at a concentration of 5.0% (v/v) to 1.8 L fermentation medium, and incubated under a stepwise temperature control, in which the temperature was maintained at 37° C. for the first 10 hours, at 35° C. during 10-20 hours, and at 32° C. after 20 hours. The aeration rate was 1.0 (v/v/m) (volume of air per volume of culture per minute). The shaking speed was 400 rpm. The total fermentation period was 48 to 53 hours. Proteinase inhibitors can be added during this fermentation process as described below.
# (§2) Catalase activity was measured using the method described by Aebi (Aebi HE. Catalase in vitro. Method Enzymol 1984; 105:121-6). Total reaction volume is 3 ml. 0.1 ml enzyme solution was added to 2.9 ml KH2PO4—K2HPO4 buffer (pH 7.0, 10 mM KH2PO4/50 mM K2HPO4, 0.45 g/L H2O2). Decomposition rate of H2O2 was measured at 240 nm using a UV-Vis spectrophotometer. One unit of catalase activity is defined as the amount of enzyme that decomposes 1 μmol H2O2 per min at pH 7.0, 25° C.
# Bacillus sp. WSHDZ-01 with accession number CCTCC NO. M206062 was used to produce catalase. Bacillus sp. WSHDZ-01 grown on a slant culture was inoculated into 50 ml of liquid seed medium in a 250 ml culture flask and cultured at 37° C., 200 rpm for 12-14 hours. 6% above liquid seed culture (v/v) was added to 80 ml basic fermentation culture in a 500 ml culture flask, and incubate at 37° C., 200 rpm, for 36-40 hours.
# as §1, with “the” for “Fermentation Culture: the”, “L” for “liter (L)”, “The” for “Above”, “hours.” for “hours. Proteinase inhibitors can be added during this fermentation process as described below.”
# [2] = test system: catalase; assay: Storage stability of unpurified fermentation broth (remaining extracellular catalase activity); design: species or system Bacillus sp. WSHDZ-01
# Procedure: as §2
# The culturing of Bacillus sp. WSHDZ-01 was performed as described under control procedure with one modification, that is, 5 g/L sodium hexametaphosphate was added at 36 hours of fermentation.
# After fermentation, unpurified fermentation broth was stored at 25° C. for 12 hours. […] The broth storage stability was improved by 28.3% under the procedure with sodium hexametaphosphate.
# [3] = 1 g/L added at 30 hours of fermentation
# [4] = 3 g/L added at 36 hours of fermentation
# [5] = 5 g/L added at 36 hours of fermentation
# [6] = 7 g/L added at 36 hours of fermentation
# [7] = 10 g/L added at 40 hours of fermentation
smiles,measurement,setting,value
O=P1([O-])OP(=O)([O-])OP(=O)([O-])OP(=O)([O-])OP(=O)([O-])OP(=O)([O-])O1.[Na+].[Na+].[Na+].[Na+].[Na+].[Na+] [sodium hexametaphosphate],Extracellular catalase activity of the fermentation broth,[1]; [3],15700 U/mL
same,increase of enzyme activity from that of the control procedure,[1]; [3],16.3%
same,Extracellular catalase activity of the fermentation broth,[1]; [4],18600 U/mL
same,increase of enzyme activity from that of the control procedure,[1]; [4],37.7%
same,Extracellular catalase activity of the fermentation broth,[1]; [5],19200 U/mL
same,increase of enzyme activity from that of the control procedure,[1]; [5],42.2%
same,Extracellular catalase activity of the fermentation broth,[1]; [6],19700 U/mL
same,increase of enzyme activity from that of the control procedure,[1]; [6],45.9%
same,Extracellular catalase activity of the fermentation broth,[1]; [7],16900 U/mL
same,increase of enzyme activity from that of the control procedure,[1]; [7],25.2%
same,percentage of remaining extracellular catalase activity of the stored fermentation broth,"[2]; 5 g/L added at 36 hours of fermentation, unpurified broth stored at 25° C. for 12 hours",84.4%
same,broth storage stability improved,"[2]; 5 g/L added at 36 hours, stored at 25° C. for 12 hours, versus control culture procedure (56.1%)",28.3%
